Measurements from PubChem BioAssay AID1963427 (Molecular Pharmacology Branch, DTP, NCI, 2024).
Several values for one entry are separate records, joined by “and”; a condition that tells them apart may be missing. Equal entries are not always repeated.

Tested on: 317291-083-R-J1-PDC complex spheroid growth
Assay: Anticancer human tumor 317291-083-R-J1-PDC patient-derived soft tissue sarcoma cell line growth inhibition [Asc]
Conditions: for viability, T/C: stronger effect = lower value; active = viability on the fitted dose curve at most 10% of control; inactive = the rest
How it was run: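 Concentration series start at each agent's clinical Cmax, or at 10 microM when none is established, and drop in half-log steps; agents are applied alone or together to complex spheroids built with HUVEC and hMSC.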

[1] = curve of first compound, second compound 0.0316 µM
[2] = curve of first compound, second compound 0.1 µM
[3] = curve of first compound, second compound 0.316 µM
[4] = curve of first compound, second compound 1 µM
[5] = second compound 0.0316 µM, first compound 0.00316 µM
[6] = second compound 0.0316 µM, first compound 0.01 µM
[7] = second compound 0.0316 µM, first compound 0.0316 µM
[8] = second compound 0.0316 µM, first compound 0.1 µM
[9] = second compound 0.0316 µM, first compound 0.316 µM
[10] = second compound 0.0316 µM, first compound 1 µM
[11] = second compound 0.1 µM, first compound 0.00316 µM
[12] = second compound 0.1 µM, first compound 0.01 µM
[13] = second compound 0.1 µM, first compound 0.0316 µM
[14] = second compound 0.1 µM, first compound 0.1 µM
[15] = second compound 0.1 µM, first compound 0.316 µM
[16] = second compound 0.1 µM, first compound 1 µM
[17] = second compound 0.316 µM, first compound 0.00316 µM
[18] = second compound 0.316 µM, first compound 0.01 µM
[19] = second compound 0.316 µM, first compound 0.0316 µM
[20] = second compound 0.316 µM, first compound 0.1 µM
[21] = second compound 0.316 µM, first compound 0.316 µM
[22] = second compound 0.316 µM, first compound 1 µM
[23] = second compound 1 µM, first compound 0.00316 µM
[24] = second compound 1 µM, first compound 0.01 µM
[25] = second compound 1 µM, first compound 0.0316 µM
[26] = second compound 1 µM, first compound 0.1 µM
[27] = second compound 1 µM, first compound 0.316 µM
[28] = second compound 1 µM, first compound 1 µM
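Also: compound exposure lasted seven days after spheroids formed for three days.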
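For viability, T/C in this document: 100% = DMSO vehicle control wells.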

CNC(C)C(=O)NC1CN(S(=O)(=O)c2cccc(S(=O)(=O)N3CCC4CCC(C(=O)NC(c5ccccc5)c5ccccc5)N4C(=O)C(NC(=O)C(C)NC)C3)c2)CCC2CCC(C(=O)NC(c3ccccc3)c3ccccc3)N2C1=O (stereo not given) + Cc1c(S(C)(=O)=O)c(-c2cc(F)cc(N3CCN(c4ccc(NS(=O)(=O)c5ccc(NC(CCN6CCC(C(=O)OCCCP(=O)(O)O)CC6)CSc6ccccc6)c(S(=O)(=O)C(F)(F)F)c5)cc4)CC3)c2)c(-c2ccc(Cl)cc2)n1C(C)C
inactive: viability, T/C [5] 121% | viability, T/C [6] 65.5% | viability, T/C [7] 82.7% | viability, T/C [8] 55.4% | viability, T/C [9] 53.3% | viability, T/C [10] 32.9% | viability, T/C [11] 88.3% | viability, T/C [12] 80.2% | viability, T/C [13] 60.4% | viability, T/C [14] 62.2% | viability, T/C [15] 35.1% | viability, T/C [16] 25.1% | viability, T/C [17] 82.7% | viability, T/C [18] 67.4% | viability, T/C [19] 74.5% | viability, T/C [20] 60.5% | viability, T/C [21] 38.8% | viability, T/C [22] 23.8% | viability, T/C [23] 70.7% | viability, T/C [24] 61.4% | viability, T/C [25] 55% | viability, T/C [26] 44.5% | viability, T/C [27] 41.3% | viability, T/C [28] 25.3% | viability, T/C (second compound 3.16 µM, first compound 0.00316 µM) 81% | viability, T/C (second compound 3.16 µM, first compound 0.01 µM) 53.1% | viability, T/C (second compound 3.16 µM, first compound 0.0316 µM) 65.1% | viability, T/C (second compound 3.16 µM, first compound 0.1 µM) 50.9% | viability, T/C (second compound 3.16 µM, first compound 0.316 µM) 36.6% | viability, T/C (second compound 3.16 µM, first compound 1 µM) 22.1% | viability, T/C (second compound 10 µM, first compound 0.00316 µM) 77.5% | viability, T/C (second compound 10 µM, first compound 0.01 µM) 78.6% | viability, T/C (second compound 10 µM, first compound 0.0316 µM) 67.1% | viability, T/C (second compound 10 µM, first compound 0.1 µM) 60% | viability, T/C (second compound 10 µM, first compound 0.316 µM) 34.9% | viability, T/C (second compound 10 µM, first compound 1 µM) 24.8%
84.1 nM: IC50 (curve of first compound, second compound 3.16 µM)
61.4 nM: IC50 [4]
138 nM: IC50 [2]
197 nM: IC50 [1]
149 nM: IC50 (curve of first compound, second compound 10 µM)
176 nM: IC50 [3]

CCN1CCN(Cc2ccc(Nc3ncc(F)c(-c4cc(F)c5nc(C)n(C(C)C)c5c4)n3)nc2)CC1 + CNC(C)C(=O)NC1CN(S(=O)(=O)c2cccc(S(=O)(=O)N3CCC4CCC(C(=O)NC(c5ccccc5)c5ccccc5)N4C(=O)C(NC(=O)C(C)NC)C3)c2)CCC2CCC(C(=O)NC(c3ccccc3)c3ccccc3)N2C1=O
18.1 nM: IC50 [3]
inactive: viability, T/C (second compound 0.00316 µM, first compound 0.00316 µM) 54.7% | viability, T/C (second compound 0.00316 µM, first compound 0.01 µM) 58.7% | viability, T/C (second compound 0.00316 µM, first compound 0.0316 µM) 56.8% | viability, T/C (second compound 0.00316 µM, first compound 0.1 µM) 65% | viability, T/C (second compound 0.00316 µM, first compound 0.316 µM) 48.9% | viability, T/C (second compound 0.00316 µM, first compound 1 µM) 28% | viability, T/C (second compound 0.01 µM, first compound 0.00316 µM) 89.1% | viability, T/C (second compound 0.01 µM, first compound 0.01 µM) 90% | viability, T/C (second compound 0.01 µM, first compound 0.0316 µM) 79.2% | viability, T/C (second compound 0.01 µM, first compound 0.1 µM) 76% | viability, T/C (second compound 0.01 µM, first compound 0.316 µM) 48.8% | viability, T/C (second compound 0.01 µM, first compound 1 µM) 31.6% | viability, T/C [5] 80.3% | viability, T/C [6] 79.6% | viability, T/C [7] 64.9% | viability, T/C [8] 58.4% | viability, T/C [9] 35.7% | viability, T/C [10] 40.9% | viability, T/C [11] 60.9% | viability, T/C [12] 50.2% | viability, T/C [13] 53.8% | viability, T/C [14] 45.6% | viability, T/C [15] 43.5% | viability, T/C [16] 22.2% | viability, T/C [17] 58.6% | viability, T/C [18] 49.4% | viability, T/C [19] 42.8% | viability, T/C [20] 48% | viability, T/C [21] 33.4% | viability, T/C [22] 22.7% | viability, T/C [23] 32.9% | viability, T/C [24] 36.6% | viability, T/C [25] 36.6% | viability, T/C [26] 31.4% | viability, T/C [27] 32.2% | viability, T/C [28] 19.5%
< 3.16 nM: IC50 [4]
345 nM: IC50 (curve of first compound, second compound 0.00316 µM)
71 nM: IC50 [2]
140 nM: IC50 [1]
320 nM: IC50 (curve of first compound, second compound 0.01 µM)

COc1c(OCCCN2CCOCC2)ccc2c3n(c(=NC(=O)c4cnc(N)nc4)nc12)CCN3
inactive: viability, T/C (compound 0.00316 µM) 92% and 97.6% and 96.2% | viability, T/C (compound 0.01 µM) 90.5% and 100% and 93.7% | viability, T/C (compound 0.0316 µM) 73.5% and 93.8% and 80.6% | viability, T/C (compound 0.1 µM) 49.4% and 56.9% and 59.9% | viability, T/C (compound 0.316 µM) 25.9% and 37.9% and 33.4% | viability, T/C (compound 1 µM) 12.6% and 21.9% and 15.6%
149 nM and 158 nM and 103 nM: IC50 (curve of compound)

NC1CCC(NC2CC2c2ccccc2)CC1 (stereo not given)
inactive: viability, T/C (compound 0.000316 µM) 107% and 84.4% and 104% | viability, T/C (compound 0.001 µM) 97.8% and 80.7% and 96.1% | viability, T/C (compound 0.00316 µM) 84.8% and 99.5% and 109% | viability, T/C (compound 0.01 µM) 95.1% and 93.7% and 104% | viability, T/C (compound 0.0316 µM) 91.5% and 112% and 96.1% | viability, T/C (compound 0.1 µM) 97.7% and 80.4% and 90%
> 100 nM: IC50 (curve of compound)

C=CC(=O)N1CCN(c2nc(=O)n(-c3c(C)ccnc3C(C)C)c3nc(-c4c(O)cccc4F)c(F)cc23)C(C)C1 (stereo not given)
> 10000 nM: IC50 (curve of compound)
inactive: viability, T/C (compound 0.0316 µM) 94.7% and 115% and 91.3% | viability, T/C (compound 0.1 µM) 116% and 91.4% and 84% | viability, T/C (compound 0.316 µM) 97.3% and 95.1% and 99.8% | viability, T/C (compound 1 µM) 117% and 90.1% and 95.4% | viability, T/C (compound 3.16 µM) 92.4% and 89.8% and 78.8% | viability, T/C (compound 10 µM) 61% and 73.1% and 78%
